Tested on: p16-INK4A (p16)
Assay: p16 expression in H2O2-treated TIG-3 cells (cellular senescence marker, real-time PCR)
Format: cell-based, human
Description: TIG-3 cells (human lung fibroblasts) were used to measure the expression level of p16-INK4A (p16) in the cells. Eagle's minimum essential medium supplemented with 10% fetal bovine serum was used in each of Examples 1 and 2, Reference Example 1, and Comparative Examples 1 to 4. A H2O2 (200 μM)-supplemented medium used for H2O2 treatment was prepared by adding H2O2 to the medium described above. The H2O2 (200 μM)-supplemented medium is free of sesamin-class compounds and ergothioneine.
In Examples 1 and 2, in order to investigate the action on cellular senescence, the cells were cultured in a medium containing sesamin-class compounds and ergothioneine and were then treated with the H2O2-supplemented medium. […]
Specifically, TIG-3 cells at 4.0×10^4 cells/well were seeded onto 6-well plates and cultured at 37° C. with CO2 (5%) for 24 hours in a medium supplemented with a sesamin-episesamin mixture (SE) and ergothioneine at the respective concentrations shown in the following Table 1. […] The resulting pellets were dissolved in 20 μL DNase RNase free water (Invitrogen) and measured by NanoDrop. […] A master mix (15 μL) (Takara, TB Green® Premix Ex Taq™ II (Tli RNaseH Plus)) was mixed with the cDNA sample (5 μL), and p16 was measured with a Real-Time PCR system (Applied Biosystems, StepOnePlus-01). An average p16 expression level (n=6) was determined. […]

## C[N+](C)(C)[C@@H](Cc1c[nH]c(=S)[nH]1)C(=O)[O-] [ergothioneine, L-ergothioneine]
FIG. 1, ergothioneine 0.1 μM, 200 μM H2O2 two hours, then six days culture, n=6
  p16 expression level compared to the H2O2-treated group (Comparative Example 1): no significant change
FIG. 2, ergothioneine 10 μM, 200 μM H2O2, p<0.05
  p16 expression compared to the H2O2-treated group (Comparative Example 1): significantly suppressed

From patent US20240408052A1, “COMPOSITION CONTAINING SESAMIN AND ERGOTHIONEINE OR SALT THEREOF” (SUNTORY HOLDINGS LIMITED, priority 2021, published 2024)
